Patent US5372944A, “Method for conversion of halogenated hydrocarbons to halohydrins” (The Dow Chemical Company, priority 1993, dated 1994)

Experiments:
[1] = test system: dehalogenase in cell free extracts of Rhodococcus Rhodochrous, TDTM-003; test: Primary screen of dehalogenase activity in cell free extracts of TDTM-003; format: biochemical
Description: Following overnight growth, 50 μl of 1-chlorobutane was added to induce the dehalogenase. After 24 hours induction, cells were harvested by centrifugation, resuspended in cold 10mM Tris sulfate/1 mM disodium EDTA, pH=7.5, and disrupted by sonication. Cell debris was removed by centrifugation at 10,000 rpm for 30 minutes, cell free extracts dialyzed overnight against the same buffer, and assayed without dilution for dehalogenase activity.
Free chloride or bromide was assayed qualitatively using a chloride electrode (Orion), or quantitatively using the colorimetric method (430 nm) described by J. G. Bergmann, et al., Anal. Chem., 29:241-243 (1957).
(§1) Hydrolytic dehalogenase enzyme activity was evaluated by adding an appropriate amount of cell free extract or enzyme preparation to 5.0 mL of 100 mM glycine buffer, pH=9.0 in a 7 mL glass vial. The halogenated substrate (5.0 μl) and a small stir bar were added, and the vial capped. Reaction was initiated by transfer to a 30° C. water bath equipped with a magnetic stirrer. Periodically 1.0 mL samples were removed and assayed for free halide. Rates were determined after correcting for non-enzymatic hydrolysis with an appropriate blank. A standard curve was prepared using sodium chloride.
Preliminary studies were performed on cell free extracts of TDTM-003 to evaluate the enzyme substrate selectivity, and the results of this study are shown in Table 2.

[2] = target: partially purified TDTM-003 dehalogenase (Rhodococcus sp. TDTM0003, UniProt P59336); test: Substrate profile of partially purified TDTM-003 dehalogenase; format: biochemical, Rhodococcus species TDTM-003; conditions: corrected for non-enzymatic hydrolysis
partially purified TDTM-003 dehalogenase, sequence (P59336 whole entry): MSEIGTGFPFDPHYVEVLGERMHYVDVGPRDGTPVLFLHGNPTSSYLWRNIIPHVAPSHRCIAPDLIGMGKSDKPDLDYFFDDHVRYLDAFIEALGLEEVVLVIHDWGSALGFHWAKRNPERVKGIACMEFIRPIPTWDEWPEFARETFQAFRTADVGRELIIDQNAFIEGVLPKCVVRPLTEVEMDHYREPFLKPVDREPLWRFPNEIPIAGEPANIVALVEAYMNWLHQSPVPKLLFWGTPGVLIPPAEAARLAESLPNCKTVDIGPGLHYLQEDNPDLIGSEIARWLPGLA
Description: as §1
Frozen pellets from 2 liters of culture were thawed into 150 mL of 10 mM Tris sulfate buffer, pH=7.5 containing 1 mM disodium EDTA. This buffer was used throughout the entire purification. The suspension was sonicated for approximately 1 hour with ice cooling using a Microson Ultrasonic Cell Disrupter and centrifuged at 10,000 rpm for 15 minutes to remove cell debris. Supernatant was removed and the sonication/centrifugation repeated with fresh buffer to increase enzyme yield. Overall sonication efficiency was monitored by absorbence at 280 nm. Cell free extracts were combined and brought slowly to 30 percent saturation with solid ammonium sulfate. The suspension was centrifuged at 10,000 rpm for 30 minutes and the pellet discarded. The supernatant was brought to 70 percent saturation with solid ammonium sulfate and centrifugation repeated. Supernatant was discarded and the pellet taken up in a small volume of buffer and dialyzed overnight against 1 liter of the same. The preparation was applied to a 1.5×15cm column of DEAE-Sephadex equilibrated with the same buffer elution carried out with a 1 liter gradient from 0 to 400 mM ammonium sulfate. Fractions of about 7-8 mLs were collected. The active fractions were pooled and brought to 90 percent saturation with ammonium sulfate. The pellet was taken up in a minimal amount of buffer, ultrafiltered to 2.5 mL using 10,000 MWCO Novacell Ultrafiltration cell, and applied to a 1.5×90 cm Sephadex G-100 column. Elution was by gravity at 90 cm and fractions of 7-8 mLs were collected. Active fractions were poled, brought to 30 percent saturation with ammonium sulfate, and applied to a 10 ml column of Butyl-agarose equilibrated in the same. Elution was performed with a 500 mL gradient from 30 percent-0 percent ammonium sulfate. Active fractions were pooled, dialyzed and used for substrate selectivity studies.
To evaluate the substrate selectivity of haloalkane dehalogenase from isolated Rhodococcus species, an enzyme preparation from the strain designated TDTM-003 was purified by the procedure described under General Experimental. This preparation provided a dehalogenase which was approximately 50 percent pure as estimated by SDS-PAGE and was free of interfering halohydrin dehalogenase activity.
The activity of this partially purified TDTM-003 dehalogenase preparation was evaluated against various chlorinated and brominated substrates. Each enzymatic rate was corrected for non-enzymatic hydroloysis.

[3] = test system: double mutants lacking both ADH and halohydrin dehalogenase activity; test: Whole cell conversion of DCP, DCB and TCP by double mutants: kinetics, selectivity, enantioselectivity; format: cell-based, Rhodococcus species; conditions: double mutants grown on succinate, induced with 1-chlorobutane
Description: To evaluate kinetics and selectivity of various mutants with respect to conversion of the target halocarbons, 1,2-dichloropropane (DCP), 1,2-dichloro-butane (DCB) and 1,2,3-trichloropropane (TCP) cultures were first inoculated from slants into 25 mL nutrient media in a 125 mL flask and grown overnight. Five mL were inoculated into 50 mL of MM1X4P containing 5 g/L disodium succinate in a 250 mL flask. Following 4 hours of growth and again at 8 hours, 10 μl of 1-chlorobutane was added for induction of the dehalogenase. Following 24 hours growth, cells were harvested by centrifugation and resuspended into 50 mL of fresh sterile MM1X4P and transferred to a sterile 250 mL shake flask equipped with a bulb feeder as described by Gibson, et al., supra. DCP, DCB, and TCP were added to bulb feeders and reaction progress monitored by gas chromatography (GC). Throughout the protocol, volumes were modified as needed to provide higher concentrations of cells and/or to provide identical batches of induced cells for comparative studies.
(§2) For gas chromatography (GC) analysis of halogenated metabolites, cultures were centrifuged briefly to remove cells, saturated with sodium sulfate, and an equivalent volume of methylene chloride added. The suspension was vortexed vigorously, centrifuged to break the emulsion and the methylene chloride phase removed.
(§3) Analysis of all halocarbon substrates and products from culture broths was done by GC using a Hewlett Packard 5710 equipped with a 7671A Autoinjector with the following protocol:
Analysis for optical activity of microbially produced 2,3-dichloro-1-propanol was determined independently using two methods. […] Enantiomeric composition of DCP, DCB, and respective halohydrins can also be monitored using a derivatized cyclodexdrin gas chromatography column (CHIRALDEX™ type B-TA Column, Advanced Separation Technologies, Inc.). Enantiomeric excess was determined by a comparison of peak areas.
The double mutants were evaluated for conversion of DCP, DCB, and TCP following growth on succinate in the presence of 1-chlorobutane as an inducer of the dehalogenase. […]

TDTM-003-60-2-11 = test: Dehalogenation by double mutant strain TDTM-003-60-2-11 in shake flask with bulb feeder; format: cell-based, Rhodococcus sp.; conditions: for overall rate of halohydrin production: 28° C., 150 rpm, substrate from bulb feeder; for halohydrin accumulated in culture broth: after 120 hours
Source text: as §2, §3
Dehalogenation of 1,2-dichloropropane by the double mutant strain of Rhodococcus sp., designated TDTM-003-60-2-11 was assayed in the following manner: 5 mL of an overnight culture (16 hours) were used as inoculum for 50 mL MM1X4P containing 5 g/L disodium succinate in a 250 mL flask. At 4 and 8 hours growth, 10 μL of 1-chlorobutane was added to induce the dehalogenase enzyme. Following 24 hours of growth, cells were harvested by centrifugation, resuspended into 50 mL of fresh MM1X4P, and transferred to a sterile 250 mL shake flask equipped with a bulb feeder. To the bulb feeder was added 1,2-dichloropropane and incubation continued at 28° C. and 150 rpm. […] The production of halohydrin products was monitored by gas chromatography. 1 -Chloro-2-propanol and 2-chloro-1-propanol accumulate linearly in the culture broth to 74 parts-per-million (ppm) (w/v) and 20 ppm (w/v) respectively after 120 hours. The overall rate of halohydrin production is 0.60 mg/g dry cells/hr.
The procedure described in Example 6 was followed except 1,2-dichlorobutanereplaced 1-chlorobutane in the bulb feeder.
The procedure described in Example 6 was followed except 1,2,3-trichloropropane replaced 1-chlorobutane in the bulb feeder.

TDTM-003 = test: Utilization of carbon containing compounds for growth in liquid culture, TDTM-003; format: cell-based, Rhodococcus species; conditions: strain TDTM-003, liquid culture

SMILES | Relative Rate of Chloride Release, 1-chlorobutane = 100 [1] | Relative Rate of Halogen Release, 1-Chlorobutane = 100 [2] | in vivo rates of conversion [3] | overall rate of halohydrin production (TDTM-003-60-2-11) | other results
ClCC(Cl)CCl [1,2,3-trichloropropane] | 23 | 18.000 | 1.06 mg product/g dry cells/hr | 2.39 mg/g dry cells/hr | 
CCC(Cl)CCl (stereo not drawn) [1,2-dichlorobutane] | 108 | 33.000 | 1.29 mg product/g dry cells/hr | 2.47 mg/g dry cells/hr | 
CC(Cl)CCl (stereo not drawn) [1,2-dichloropropane] | 4.2 | 5.800 | 0.30 mg product/g dry cells/hr | 0.60 mg/g dry cells/hr | utilization as a sole source of carbon (TDTM-003): does not utilize
CCC(O)CCl (stereo not drawn) [1-Chloro-2-butanol] |  |  |  |  | halohydrin accumulated in culture broth (TDTM-003-60-2-11; substrate 1,2-dichlorobutane): 6.5 ppm (w/v)
CC(O)CCl (stereo not drawn) [1-chloro-2-propanol] |  |  |  |  | halohydrin accumulated in culture broth (TDTM-003-60-2-11; substrate 1,2-dichloropropane): 74 ppm (w/v)
OCC(Cl)CCl (stereo not drawn) [2,3-dichloro-1-propanol] |  |  |  |  | halohydrin accumulated in culture broth (TDTM-003-60-2-11; substrate 1,2,3-trichloropropane): 211 ppm (w/v)
CCC(Cl)CO (stereo not drawn) [2-chloro-1-butanol] |  |  |  |  | halohydrin accumulated in culture broth (TDTM-003-60-2-11; substrate 1,2-dichlorobutane): 265 ppm (w/v)
CC(Cl)CO (stereo not drawn) [2-chloro-1-propanol] |  |  |  |  | halohydrin accumulated in culture broth (TDTM-003-60-2-11; substrate 1,2-dichloropropane): 20 ppm (w/v)
